Source: the supplement of paper PMC5908809

Assays:
[1] = tested on: normal NK cells expanded with K562-aAPC; experiment: drug sensitivity score (DSS) (DSS units); higher = more sensitive; extreme values may be limits of the assay; conditions: 72 h; IL-2 2.5 ng/mL
Experimental: (§1)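 Drug sensitivity and resistance testing on K562-aAPC-expanded normal NK cells: 5 concentrations (10-fold steps over a 10,000-fold range), 72 h at 37 °C, viability by CellTiter-Glo normalised to DMSO and benzethonium chloride controls; DSS from the fitted curve.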

[2] = tested on: normal primary NK cells, pool 3 (3 donors) (IL-2 2.5 ng/mL); experiment: as above; conditions: 72 h
[3] = tested on: KAI3 (IL-2 2.5 ng/mL); experiment: as above; conditions: 72 h
[4] = tested on: normal primary NK cells, pool 1 (3 donors) (IL-2 2.5 ng/mL); experiment: as above; conditions: 72 h
[5] = tested on: SNK-6 (IL-2 2.5 ng/mL); experiment: as above; conditions: 72 h
[6] = tested on: KHYG-1 (IL-2 2.5 ng/mL); experiment: as above; conditions: 72 h
[7] = tested on: normal primary NK cells, pool 2 (3 donors) (IL-2 2.5 ng/mL); experiment: as above; conditions: 72 h
[8] = tested on: NK-92 (IL-2 2.5 ng/mL); experiment: as above; conditions: 72 h
[9] = tested on: YT (IL-2 2.5 ng/mL); experiment: as above; conditions: 72 h
[10] = tested on: DERL-7 (IL-2 2.5 ng/mL); experiment: as above; conditions: 72 h
[11] = tested on: normal primary NK cells, pool 1 (3 donors), resting (IL-2 0 ng/mL); experiment: as above; conditions: 72 h
[12] = tested on: NKL (IL-2 2.5 ng/mL); experiment: as above; conditions: 72 h
[13] = tested on: NK-YS (IL-2 2.5 ng/mL); experiment: as above; conditions: 72 h
[14] = tested on: IMC-1 (IL-2 20 ng/mL); experiment: as above; conditions: 72 h
[15] = tested on: normal NK cells expanded with K562-aAPC; experiment: percent inhibition of viability; higher = more inhibition; conditions: 72 h, IL-2 2.5 ng/mL
Experimental: as §1

[16] = tested on: normal primary NK cells, pool 3 (3 donors) (IL-2 2.5 ng/mL); experiment: as above; conditions: 72 h
[17] = tested on: KAI3 (IL-2 2.5 ng/mL); experiment: as above; conditions: 72 h
[18] = tested on: normal primary NK cells, pool 1 (3 donors) (IL-2 2.5 ng/mL); experiment: as above; conditions: 72 h
[19] = tested on: SNK-6 (IL-2 2.5 ng/mL); experiment: as above; conditions: 72 h
[20] = tested on: KHYG-1 (IL-2 2.5 ng/mL); experiment: as above; conditions: 72 h
[21] = tested on: normal primary NK cells, pool 2 (3 donors) (IL-2 2.5 ng/mL); experiment: as above; conditions: 72 h
[22] = tested on: NK-92 (IL-2 2.5 ng/mL); experiment: as above; conditions: 72 h
[23] = tested on: YT (IL-2 2.5 ng/mL); experiment: as above; conditions: 72 h
[24] = tested on: DERL-7 (IL-2 2.5 ng/mL); experiment: as above; conditions: 72 h
[25] = tested on: normal primary NK cells, pool 1 (3 donors), resting (IL-2 0 ng/mL); experiment: as above; conditions: 72 h
[26] = tested on: NKL (IL-2 2.5 ng/mL); experiment: as above; conditions: 72 h
[27] = tested on: NK-YS (IL-2 2.5 ng/mL); experiment: as above; conditions: 72 h
[28] = tested on: IMC-1 (IL-2 20 ng/mL); experiment: as above; conditions: 72 h

CC(=O)NCC(=O)N1[C@@H]2CC[C@H]1c1ccc(Nc3ncc(C(F)(F)F)c(NC4CCC4)n3)cc12 (max concentration tested 10000 nM)
Conditions	drug sensitivity score
[1]	24.6
[2]	10
[3]	22.9
[4]	11
[5]	31
[6]	28.7
[7]	12
[8]	22.1
[9]	15.1
[10]	27.3
[11]	3.63
[12]	22.5
[13]	21.9
[14]	24.2

percent inhibition of viability [%]
Conditions	1 nM	10 nM	100 nM	1000 nM	10000 nM
[15]	-3.83	6.05	58.2	91	101
[16]	-18.1	-9.96	2.88	33.6	97.8
[17]	2	18.3	49.2	85	103
[18]	4.9	-3.44	17	44.7	98.1
[19]	9.63	33.2	82.6	85.3	98.7
[20]	5.24	7.98	82.5	103	105
[21]	-12.8	1.36	16.8	50.3	96.5
[22]	-9.89	2.73	54	76.7	104
[23]	3.79	9.48	23.2	62.2	103
[24]	-3.49	2.07	76.5	79.7	101
[25]	-11.5	-16.5	-21.3	-42.6	91.9
[26]	-9.97	18.8	54.1	75	104
[27]	-3.49	7.45	62.7	65.7	102
[28]	1.14	-0.36	54.2	92.5	102

CC(=O)c1c(C)c2cnc(Nc3ccc(N4CCNCC4)cn3)nc2n(C2CCCC2)c1=O [Palbociclib] (max concentration tested 10000 nM)
Conditions	drug sensitivity score
[1]	7.9
[2]	3.41
[3]	3.18
[4]	3.66
[5]	0
[6]	16.8
[7]	4
[8]	5.65
[9]	6.16
[10]	8.89
[11]	2.9
[12]	9.37
[13]	9.09
[14]	6.58

percent inhibition of viability [%]
Conditions	1 nM	10 nM	100 nM	1000 nM	10000 nM
[15]	1.29	2.27	11	16.3	94.1
[16]	-13.2	-11.6	6.3	-3.24	67
[17]	-3.55	-10.6	-0.36	0.62	57.6
[18]	-11.6	-7.3	-7.79	-6.34	74.7
[19]	27.7	15.6	28.3	9.56	32.5
[20]	-0.2	2.78	14.7	81.5	91.9
[21]	-10.6	-5.61	1.26	2.75	66.1
[22]	6.01	-5.34	15.5	12.9	65.7
[23]	2.18	0.66	6.83	31.3	37
[24]	-8.16	4.2	8.47	32.2	90.9
[25]	6.42	-17.5	-3.52	-17	68.2
[26]	-10.3	-8.16	-14.5	25	104
[27]	2.65	4.48	17.3	37.1	61.5
[28]	-2.52	-7.06	-2.86	6.43	101
